Experimental findings from US12077483B2, “Modified amine lipids” (Intellia Therapeutics, Inc., priority 2018, dated 2024) are described below.

In general, pKa refers to the negative logarithm of the acid dissociation constant.

A short description of series [1]: pKa of amine lipid by TNS fluorescence. It counts as physicochemical. The following applies: probe TNS (6-(p-toluidino)-2-naphthalenesulfonic acid sodium salt), unformulated amine lipid in ethanol, sodium phosphate buffers -9.0. A digest of the protocol: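 pKa derived from a sigmoidal fit of normalized TNS fluorescence (321 nm excitation, 448 nm emission) versus pH. Lipid from ethanol stock diluted to about 100 μM final in 0.1 M phosphate buffers, pH 4.5–9.0.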

A short description of series [2]: LNP average particle size and polydispersity by dynamic light scattering. The series is classed as physicochemical. The note with it: Table 13; LNP sgRNA:Cas9 mRNA 1:2 w/w, N/P 6.0. A digest of the protocol: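 LNPs were diluted in PBS to a count rate of about 200-400 kcps and measured by DLS on a Zetasizer. Size is the intensity-weighted Z-average diameter, reported with number-average diameter, and the polydispersity index describes the spread of sizes around the mean.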

The nature of series [3]: RNA encapsulation efficiency of LNP (Ribogreen fluorescence assay). It counts as physicochemical. The following applies: Table 13; LNP sgRNA:Cas9 mRNA 1:2 w/w, N/P 6.0. A digest of the protocol:
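LNP samples diluted in 1× TE with or without 0.2% Triton-X 100 for total or free RNA, stained ~10 min at room temperature in the dark with RiboGreen; fluorescence ex 488/em 525 nm against RNA standard curves. Encapsulation efficiency = (Total RNA−Free RNA)/Total RNA.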

Series [4] has as its system TTR in HUH7 cells. Nature of the series: In vitro editing in HUH7 cells, LNP with Cas9 mRNA and sgRNA G000502, NGS. The series is classed as cell-based, human. The note with it: Table 14; 2000 ng RNA per well, cells harvested 6 hours post-transfection, biological duplicate, G000502 target locus. The procedure:
A series of compounds based on Compound 46 that vary by the inclusion of a C4-12 alkyl at the R^3 position of Formula (IA) (as illustrated in FIG. 13A) were tested for in vitro editing. The human hepatocellular carcinoma cell line […] (Japanese Collection of Research Bioresources Cell Bank, Cat. JCRB0403) was cultured in DMEM media supplemented with 10% fetal bovine serum and 1% Penicillin-Streptomycin. Cells were plated at a density of 20,000 cells/well in a 96-well plate 24 hours prior to transfection (˜80% confluent at time of transfection). The LNPs were formulated at a 1:2 w/w ratio of sgRNA and Cas9 mRNA using the cross flow procedure with lipid molar compositions as described in Table 13 at an N/P ratio of 6.0. LNP compositions were analyzed for average particle size, polydispersity (pdi), total RNA content and encapsulation efficiency of RNA as described in Example 115. Analysis of average particle size, polydispersity (PDI), total RNA content and encapsulation efficiency of RNA are shown in Table 13. LNPs were diluted into media, incubated for 5 minutes at 37 C and pipetted onto cells at a dose of 2000 ng RNA per well. Each condition was assayed in biological duplicate. Cells were harvested post-transfection at 6 hours. Genomic DNA was extracted using 50 μL/well BuccalAmp DNA Extraction solution (Epicentre, Cat. QE09050) according to manufacturer's protocol. All DNA samples were subjected to PCR and subsequent NGS analysis for editing at the G000502 target locus, as described above. As shown in Table 14 and FIG. 13B, all compounds tested were efficacious for in vitro editing.

Series [5] deals with mouse TTR. Put plainly: Serum TTR ELISA in mice after LNP delivery. The series is classed as in vivo. The following applies: for Serum TTR: Exp. 1, 8, 9, 10. A digest of the protocol:
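Mouse TTR in serum was quantified by ELISA (samples diluted e.g. 10,000- and/or 2,500-fold) 6–7 days after dosing CD-1 females with LNP, typically 0.1 mpk. Values are reported relative to vehicle-treated controls (%).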

Series [6] concerns mouse TTR gene. Put plainly: In vivo editing in mouse liver, LNP with Cas9 mRNA and sgRNA G282, NGS. The following applies: Table 3; guide G282; CD-1 female mice, 0.1 mpk i.v., liver at 6 or 7 days; Exp. 1, 8, 9, 10. The procedure: LNPs were prepared using various amine lipids in a 4-component lipid system consisting of an ionizable lipid (e.g. an amine lipid), DSPC, cholesterol and PEG-2k-DMG. In assays for percent liver editing in mice, Cas9 mRNA and chemically modified sgRNA targeting a mouse sequence were formulated in LNPs, at either a 1:1 w/w ratio or a 1:2 w/w ratio.
The lipid components were dissolved in 100% ethanol with the lipid component molar ratios described below. The chemically modified sgRNA and Cas9 mRNA were combined and dissolved in 25 mM citrate, 100 mM NaCl, pH 5.0, resulting in a concentration of total RNA cargo of approximately 0.45 mg/mL. The LNPs were formulated with an N/P ratio of about 6, with the ratio of chemically modified sgRNA: Cas9 mRNA at either a 1:1 or 1:2 w/w ratio as described below.
CD-1 female mice, ranging from 6-10 weeks of age were used in each study. Animals were weighed and grouped according to body weight for preparing dosing solutions based on group average weight. LNPs were dosed via the lateral tail vein in a volume of 0.2 mL per animal (approximately 10 mL per kilogram body weight). The animals were periodically observed for adverse effects for at least 24 hours post dose.
For studies measuring in vivo editing in liver, CD-1 female mice were dosed at 0.1 mpk unless otherwise noted. Animals were euthanized at 6 or 7 days by exsanguinationvia cardiac puncture under isoflourane anesthesia. Liver tissue was collected from each animal for DNA extraction and analysis. Blood was collected into serum separator tubes or into tubes containing buffered sodium citrate for plasma as described herein. Cohorts of mice were measured for editing by Next-Generation Sequencing (NGS).
In brief, to quantitatively determine the efficiency of editing at the target location in the genome, genomic DNA was isolated and deep sequencing was utilized to identify the presence of insertions and deletions introduced by gene editing.
PCR primers were designed around the target site (e.g., B2M), and the genomic area of interest was amplified. Additional PCR was performed according to the manufacturer's protocols (Illumina) to add the necessary chemistry for sequencing. The amplicons were sequenced on an Illumina MiSeq instrument. The reads were aligned to the relevant reference genome (e.g., GRCm38) after eliminating those having low quality scores. The resulting files containing the reads were mapped to the reference genome (BAM files), where reads that overlapped the target region of interest were selected and the number of wild type reads versus the number of reads which contain an insertion, substitution, or deletion was calculated.
The editing percentage (e.g., the “editing efficiency” or “percent editing”) is defined as the total number of sequence reads with insertions or deletions over the total number of sequence reads, including wild type.
We assessed in vivo editing efficiency for materials delivered with formulations including various amine lipid compounds. Editing was measured using either G282 (SEQ ID No: 1) which targets the mouse TTR gene or G650 (SEQ ID No. 2) which targets the mouse B2M gene. Lipids described above were assessed for efficacy through in vivo editing experiments. LNPs were formulated at a 1:1 w/w ratio of sgRNA to Cas9 mRNA, and at an N/P ratio of about 6. Molar concentrations of lipids in the lipid component of the LNPs are expressed as mol % amine lipid/DSPC/cholesterol/PEG-2k-DMG, e.g. 50/10/38.5/1.5. The final LNPs were characterized to determine the encapsulation efficiency, polydispersity index, and average particle size according to the analytical methods provided above. Analysis of average particle size, polydispersity (PDI), total RNA content and encapsulation efficiency of RNA are shown in Table 2.
To assess whether the editing was dose responsive, experiments were performed in vivo at various LNP dose levels. […]

Where [7] appears, read: Table 3, guide G282, CD-1 female mice, 0.1 mpk i.v.
[8] abbreviates: Table 3, guide G282, CD-1 female mice, 0.1 mpk i.v., percentage of vehicle control (TSS).

With `CCCCC/C=C\C/C=C\CCCCCCCC(=O)OCC(COC(=O)CCCCCCC/C=C\C/C=C\CCCCC)OC(=O)CCC(CCCC)OC(=O)NCCN1CCCC1` (stereo not shown) [Compound 85, 2-((4-(((2-(pyrrolidin-1-yl)ethyl)carbamoyl)oxy)octanoyl)oxy)propane-1,3-diyl (9Z,9′Z,12Z,12′Z)-bis(octadeca-9,12-dienoate)], the pKa in series [1] amounted to 7.02. Besides, in series [2], the “Number Average [nm]” value is given as 93.05 nm, the PDI stood at 0.045 and the “Z-Ave Size (nm)” value is listed as 117.1 nm. Further, in series [3], the “% E” value is listed as 96%. The molecule also returned an Editing in series [4] of 66.4%.
`CCCCC/C=C\C/C=C\CCCCCCCC(=O)OCC(COC(=O)CCCCCCC/C=C\C/C=C\CCCCC)OC(=O)CCC(CCCCCCC)OC(=O)NCCN1CCCC1` (stereo not shown) [Compound 76, 2-((4-(((2-(pyrrolidin-1l-yl)ethyl)carbamoyl)oxy)undecanoyl)oxy)propane-1,3-diyl (9Z,9′Z,12Z,12′Z)-bis(octadeca-9,12-dienoate)]: in series [1], the pKa was found to be 6.74. The “Serum TTR % TSS” value in series [5] (mouse serum, relative to TSS control of same experiment, dose 0.03 mpk) is on record as 69.72 % TSS; in series [5] (mouse serum, relative to TSS control of same experiment, dose 0.1 mpk), 12.79 % TSS. Also, the Editing in series [4] worked out at 61.2%.
`CCCCC/C=C\C/C=C\CCCCCCCC(=O)OCC(COC(=O)CCCCCCC/C=C\C/C=C\CCCCC)OC(=O)CCC(CCCCCCCCCCCC)OC(=O)NCCN1CCCC1` (stereo not shown) [Compound 46, 2-((4-(((2-(pyrrolidin-1l-yl)ethyl)carbamoyl)oxy)hexadecanoyl)oxy)propane-1,3-diyl (9Z,9′Z,12Z,12′Z)-bis(octadeca-9,12-dienoate)]: in series [1], the pKa is 6.16. In series [2], the “Number Average [nm]” value is 76.76 nm, the PDI was determined as 0.003 and the “Z-Ave Size (nm)” value came out at 94.54 nm. Besides, in series [3], the “% E” value is 99%. Besides, the Editing in series [4] is reported as 63.7%.
On to `CCCCC/C=C\C/C=C\CCCCCCCC(=O)OCC(COC(=O)CCCCCCC/C=C\C/C=C\CCCCC)OC(=O)NCCN(C)CC` [Compound 114, 2-(((2-(ethyl(methyl)amino)ethyl)carbamoyl)oxy)propane-1,3-diyl (9Z,9′Z,12Z,12′Z)-bis(octadeca-9,12-dienoate), reference compound], for which, in series [1], the pKa is 6.93. For the same molecule, the “Editing Mean % Indel” value in series [6] was determined as 0.8%. In series [5] (setting [7]), the “Serum TTR” value came to 637 µg/mL. Further, in series [5] (setting [8]), the “Serum TTR % TSS” value was 78% TSS.
In the case of `CCCCC/C=C\C/C=C\CCCCCCCC(=O)OCC(COC(=O)CCCCCCC/C=C\C/C=C\CCCCC)OC(=O)CCC(OC(=O)NCCN(C)CC)C1CCCCC1` (stereo not shown) [Compound 41, 2-((4-cyclohexyl-4-(((2-(ethyl(methyl)amino)ethyl)carbamoyl)oxy)butanoyl)oxy) propane-1,3-diyl (9Z,9′Z,12Z,12′Z)-bis(octadeca-9,12-dienoate)], the pKa in series [1] is 6.51. In series [6], the “Editing Mean % Indel” value is recorded as 28.8%. For the same molecule, in series [5] (setting [7]), the “Serum TTR” value came out at 393 µg/mL. The “Serum TTR % TSS” value in series [5] (setting [8]) came out at 48% TSS.
Regarding `CCCCC/C=C\C/C=C\CCCCCCCC(=O)OCC(COC(=O)CCCCCCC/C=C\C/C=C\CCCCC)OC(=O)CCC(CCCCCCCCCCCC)OC(=O)NCCCN(C)C` (stereo not shown) [Compound 8, 2-((4-(((3-(dimethylamino)propyl)carbamoyl)oxy)hexadecanoyl)oxy)propane-1,3-diyl], in series [1], the pKa was found to be 7.54. For the same molecule, in series [6], the “Editing Mean % Indel” value is recorded as 0.1%. Moreover, in series [5] (setting [7]), the “Serum TTR” value is 745 µg/mL. For the same molecule, the “Serum TTR % TSS” value in series [5] (setting [8]) was found to be 84% TSS.
